Test results reported in article PMC3185582 (Viruses, 2010).
Where two headings read alike, the source gives them in different places.

How the values were obtained:
[1] = in vivo; conditions: dog
[2] = in vivo; conditions: BALB/c, mouse, 30 mg/kg
[3] = system: selected cell lines from mouse, rabbit, monkey, and humans; conditions: cited from earlier work
[4] = single oral dose, tidal volume
[5] = system: vero and BSC40 cells; conditions: ST-246 treatment, 50 uM; unpublished work [21]
[6] = molecular target: CYP2C19 (Homo sapiens, UniProt P33261); assay: in vitro
[7] = not given; remark: listed apart in the source
[8] = system: Caco-2
[9] = system: bacterial
[10] = system: mammalian cell
[11] = system: variola virus clinical isolates; conditions: cited from earlier work
[12] = 12 daily doses of 300 mg/kg
[13] = system: Monkeypox; conditions: in vivo, cited from earlier work
[14] = system: vaccinia virus in BSC-40 cell monolayers; type: cell-based
[15] = not given; remark: listed apart in the source
[16] = in vivo; conditions: BALB/c, mouse
[17] = molecular target: CYP2B6 (Homo sapiens, UniProt P20813); assay: in vitro
[18] = system: Cowpox; conditions: mouse, in vivo, cited from earlier work
[19] = mouse, in vivo
[20] = system: Vaccinia; conditions: mouse, in vivo, cited from earlier work
[21] = top dose 2000 mg/kg
[22] = system: monkeypox virus; set-up: species or system prairie dogs; conditions: dog, in vivo
[23] = system: vaccinia virus in BSC-40 cell monolayers; conditions: 10 μM, 5 pfu/cell; ref Chen et al. [48]; cited from earlier work
[24] = 300 mg/kg, repeat dose studies
[25] = system: monkeypox virus; conditions: cynomolgus monkey, in vivo, cited from earlier work
[26] = system: CYP 2B6
[27] = system: orthopoxviruses; set-up: species or system mice; conditions: mouse, in vivo
[28] = in vivo; conditions: cynomolgus monkey
[29] = in vivo; conditions: Sprague-Dawley, rat, po, 30 mg/kg
[30] = system: monkeypox virus clinical isolates; conditions: cited from earlier work
[31] = system: ectromelia virus; conditions: read-out: EC50 for inhibition of viral replication; cited from earlier work
[32] = molecular target: CYP2C8 (Homo sapiens, UniProt P10632); assay: in vitro
[33] = system: CYP 2C19
[34] = molecular target: CYP1A2 (Homo sapiens, UniProt P05177); assay: in vitro
[35] = methanol, ethanol and acetonitrile
[36] = in vivo; conditions: both, cynomolgus, monkey
[37] = system: variola virus; set-up: species or system cynomolgus macaques; conditions: cynomolgus monkey, in vivo
[38] = molecular target: CYP2E1 (Homo sapiens, UniProt P05181); assay: in vitro
[39] = system: variola virus; conditions: cynomolgus monkey, in vivo, cited from earlier work
[40] = not given; remark: listed apart in the source
[41] = system: cytochrome P450 (CYP); conditions: 10 μM (3,700 ng/mL)
[42] = system: monkeypox virus; set-up: species or system cynomolgus macaques; conditions: cynomolgus monkey, in vivo
[43] = for increase in AUC values (accumulation): 28 day repeat dose study
[44] = system: poxvirus; conditions: mouse, in vivo; cited from earlier work
[45] = system: Ectromelia; conditions: mouse, in vivo, cited from earlier work
[46] = monkey or human microsomes
[47] = rat, mouse and dog microsomes
[48] = system: Rabbitpox; conditions: rabbit, in vivo, cited from earlier work
[49] = mouse, in vivo; remark: listed apart in the source
[50] = system: cytochrome P450 isozymes
[51] = system: p37 with Rab9 and TIP47; conditions: cited from earlier work
[52] = not given; remark: listed apart in the source
[53] = system: Vaccinia; conditions: mouse, in vivo, po, 100 mg/kg
[54] = system: vaccinia virus; conditions: CPE assay; read-out: EC50 for inhibition of viral replication; cited from earlier work
[55] = system: unrelated viruses; conditions: read-out: EC50 for inhibition of viral replication; cited from earlier work
[56] = system: vaccinia virus; type: cell-based
[57] = system: cowpox virus; type: cell-based
[58] = by 96 hours after oral administration

Sequence of CYP2B6 (P20813 whole entry): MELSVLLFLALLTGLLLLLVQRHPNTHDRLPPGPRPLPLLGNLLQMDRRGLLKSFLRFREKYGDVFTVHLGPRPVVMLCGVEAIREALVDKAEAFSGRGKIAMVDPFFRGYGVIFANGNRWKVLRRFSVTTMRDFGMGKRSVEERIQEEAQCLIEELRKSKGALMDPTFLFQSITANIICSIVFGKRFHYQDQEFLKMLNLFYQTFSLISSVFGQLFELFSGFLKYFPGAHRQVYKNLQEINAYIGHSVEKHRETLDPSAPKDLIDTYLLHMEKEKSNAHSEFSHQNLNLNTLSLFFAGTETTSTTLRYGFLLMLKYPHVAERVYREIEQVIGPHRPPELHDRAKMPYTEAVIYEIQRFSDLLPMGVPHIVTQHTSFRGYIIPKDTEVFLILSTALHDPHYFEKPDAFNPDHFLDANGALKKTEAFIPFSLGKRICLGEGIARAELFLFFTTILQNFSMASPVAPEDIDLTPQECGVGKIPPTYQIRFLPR
Sequence of CYP2C8 (P10632 whole entry): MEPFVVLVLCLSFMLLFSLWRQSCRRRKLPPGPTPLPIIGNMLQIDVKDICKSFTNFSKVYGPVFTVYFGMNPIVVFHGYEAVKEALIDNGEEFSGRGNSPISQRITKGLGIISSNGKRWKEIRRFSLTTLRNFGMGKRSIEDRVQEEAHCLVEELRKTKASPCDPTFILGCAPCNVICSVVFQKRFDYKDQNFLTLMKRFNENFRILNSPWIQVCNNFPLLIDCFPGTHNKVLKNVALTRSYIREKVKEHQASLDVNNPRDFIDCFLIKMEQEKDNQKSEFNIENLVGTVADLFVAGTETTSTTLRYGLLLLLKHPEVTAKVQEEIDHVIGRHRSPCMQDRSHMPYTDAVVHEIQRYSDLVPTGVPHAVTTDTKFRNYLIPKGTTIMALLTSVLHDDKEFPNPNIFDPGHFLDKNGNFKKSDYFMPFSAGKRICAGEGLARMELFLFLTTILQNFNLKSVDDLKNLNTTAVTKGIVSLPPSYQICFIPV
Sequence of CYP2E1 (P05181 whole entry): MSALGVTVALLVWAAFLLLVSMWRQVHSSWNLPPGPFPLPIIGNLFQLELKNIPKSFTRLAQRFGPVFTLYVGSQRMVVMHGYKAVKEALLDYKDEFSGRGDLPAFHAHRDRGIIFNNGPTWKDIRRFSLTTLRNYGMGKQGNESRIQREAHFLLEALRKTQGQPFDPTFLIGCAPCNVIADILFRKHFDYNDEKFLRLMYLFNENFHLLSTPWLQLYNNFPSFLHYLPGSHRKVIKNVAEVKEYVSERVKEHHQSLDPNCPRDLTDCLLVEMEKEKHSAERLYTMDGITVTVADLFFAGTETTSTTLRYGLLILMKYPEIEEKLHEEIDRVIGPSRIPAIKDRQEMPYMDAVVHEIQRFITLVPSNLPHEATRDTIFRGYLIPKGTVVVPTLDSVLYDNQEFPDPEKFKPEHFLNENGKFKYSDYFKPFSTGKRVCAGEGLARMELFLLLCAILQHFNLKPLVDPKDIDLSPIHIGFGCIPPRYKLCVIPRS
Sequence of CYP2C19 (P33261 whole entry): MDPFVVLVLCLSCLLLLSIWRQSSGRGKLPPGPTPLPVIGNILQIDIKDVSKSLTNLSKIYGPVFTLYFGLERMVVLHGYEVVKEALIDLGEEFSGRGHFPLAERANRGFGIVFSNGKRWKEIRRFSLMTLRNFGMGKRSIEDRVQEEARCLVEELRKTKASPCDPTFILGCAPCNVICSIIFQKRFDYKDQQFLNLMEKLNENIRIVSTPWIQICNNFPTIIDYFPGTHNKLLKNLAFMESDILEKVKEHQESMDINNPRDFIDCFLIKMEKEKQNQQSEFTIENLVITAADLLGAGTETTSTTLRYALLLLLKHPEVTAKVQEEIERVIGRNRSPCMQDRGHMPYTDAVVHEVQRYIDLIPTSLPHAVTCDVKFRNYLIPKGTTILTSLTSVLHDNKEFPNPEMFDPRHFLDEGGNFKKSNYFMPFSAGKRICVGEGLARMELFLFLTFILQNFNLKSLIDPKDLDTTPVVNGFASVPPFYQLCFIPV
Sequence of CYP1A2 (P05177 whole entry): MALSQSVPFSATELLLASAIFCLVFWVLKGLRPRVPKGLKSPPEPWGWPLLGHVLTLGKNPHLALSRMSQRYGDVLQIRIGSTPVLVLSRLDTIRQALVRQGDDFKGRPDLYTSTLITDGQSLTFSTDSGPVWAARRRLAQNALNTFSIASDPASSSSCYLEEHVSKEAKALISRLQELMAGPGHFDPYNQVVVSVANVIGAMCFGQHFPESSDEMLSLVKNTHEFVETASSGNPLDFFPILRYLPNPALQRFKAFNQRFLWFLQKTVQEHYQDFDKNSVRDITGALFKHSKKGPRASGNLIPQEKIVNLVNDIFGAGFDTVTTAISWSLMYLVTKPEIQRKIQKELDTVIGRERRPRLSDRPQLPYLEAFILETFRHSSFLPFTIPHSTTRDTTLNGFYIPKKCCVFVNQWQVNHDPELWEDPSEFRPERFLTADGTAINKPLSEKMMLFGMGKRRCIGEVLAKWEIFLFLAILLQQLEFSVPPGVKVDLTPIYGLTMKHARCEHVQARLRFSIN

Question: For O=C(NN1C(=O)[C@@H]2[C@@H]3C=C[C@@H]([C@H]4C[C@@H]34)[C@@H]2C1=O)c1ccc(C(F)(F)F)cc1 [ST-246, Tecovirimat], which clinical observations (300 mg/kg) is on record?
Answer: ataxia was observed four hours post dose in one female NHP

Question: What about the NOEL (3 Month study) of the same molecule?
Answer: 300 mg/kg

Question: And the NOEL (28 Day repeat dose study)?
Answer: 300 mg/kg

Question: What about the “multiple-dose NOEL” value (monkey) of the same molecule?
Answer: 300 mg/kg/day

Question: And the clinical observations (single dose 1000 mg/kg)?
Answer: This was also observed

Question: What about the clinical observations (single oral dose 2000 mg/kg, male and female) of the same molecule?
Answer: decreased activity and ataxia

Question: What about the MTD [1] of the same molecule?
Answer: 30 mg/kg

Question: What about the bioavailability [2] of the same molecule?
Answer: ~40%

Question: And the CC50 [3]?
Answer: > 50000 nM

Question: And the “no observable effect level (NOEL)” value [4]?
Answer: 2000 mg/kg

Question: What about the growth of cells [5] of the same molecule?
Answer: not affected

Question: And the inhibition at 300 µM [6]?
Answer: < 50%

Question: And the plasma protein binding [7]?
Answer: moderate to high

Question: What about the Caco-2 membrane permeability [8] of the same molecule?
Answer: good

Question: And the genotoxicity [9]?
Answer: not genotoxic

Question: And the genotoxicity [10]?
Answer: not genotoxic

Question: And the “inhibition of clinical isolates in cell culture” value [11]?
Answer: inhibited

Question: What about the “electroencephalograms and seizure thresholds” value [12] of the same molecule?
Answer: no evidence of altered electroencephalograms or lowered seizure thresholds

Question: And the “Optimal oral dose mg/kg, s.i.d.” value ([13]; po)?
Answer: 100 mg/kg

Question: What about the Time of treatment [13] of the same molecule?
Answer: 72 h.p.i. (100%)

Question: And the “Time of treatment (% efficacy)” value [13]?
Answer: 72 h.p.i. (100%)

Question: And the plaque formation [14]?
Answer: inhibits

Question: And the maternal toxicity ([15]; Segment II study, highest dose 100 mg/kg)?
Answer: some maternal toxicity

Question: And the “fertility, fetal resorptions, fetal abnormalities or toxicity” value ([15]; rabbit, in vivo)?
Answer: no evidence

Question: And the NOAEL at 3 months ([16]; 1000 mg/kg)?
Answer: 1000 mg/kg

Question: And the MTD ([16]; 2000 mg/kg)?
Answer: 2000 mg/kg

Question: And the MTD at 28 days ([16]; 2000 mg/kg)?
Answer: 2000 mg/kg

Question: And the NOAEL at 28 days ([16]; 2000 mg/kg)?
Answer: 2000 mg/kg

Question: What about the inhibition at 300 µM [17] of the same molecule?
Answer: < 50%

Question: And the “Optimal oral dose mg/kg, s.i.d.” value ([18]; po)?
Answer: 100 mg/kg

Question: And the Optimal dose duration [18]?
Answer: >7 days (93%]

Question: And the “Optimal dose duration (% efficacy)” value [18]?
Answer: >7 days (93%]

Question: And the Time of treatment [18]?
Answer: 48 h.p.i. (93%)

Question: And the “Time of treatment (% efficacy)” value [18]?
Answer: 48 h.p.i. (93%)

Question: And the “fertility, fetal resorptions, fetal abnormalities or toxicity” value [19]?
Answer: no evidence

Question: And the “Optimal oral dose mg/kg, s.i.d.” value ([20]; po)?
Answer: 100 mg/kg

Question: And the Optimal dose duration [20]?
Answer: >5 days (100%]

Question: What about the “Optimal dose duration (% efficacy)” value [20] of the same molecule?
Answer: >5 days (100%]

Question: What about the “behavioral or other functional changes” value [21] of the same molecule?
Answer: did not elicit any

Question: What about the protection from death [22] of the same molecule?
Answer: 100%

Question: What about the “extracellular virus (CEV and EEV) formation” value [23] of the same molecule?
Answer: inhibits

Question: What about the QTc [24] of the same molecule?
Answer: no prolongation

Question: And the “Optimal oral dose mg/kg, s.i.d.” value ([25]; po)?
Answer: 3 mg/kg

Question: What about the Time of treatment [25] of the same molecule?
Answer: 96h.p.i. (100%)

Question: What about the “Time of treatment (% efficacy)” value [25] of the same molecule?
Answer: 96h.p.i. (100%)

Question: What about the protection from death [25] of the same molecule?
Answer: 100%

Question: What about the “protection from lethal infection” value [25] of the same molecule?
Answer: 100%

Question: What about the CYP induction [26] of the same molecule?
Answer: induction was observed

Question: And the “latest treatment initiation for full protection” value [27]?
Answer: ≤ 72 hours post-infection

Question: And the optimal dosing period ([27]; 100 mg/kg)?
Answer: greater than seven days

Question: What about the “optimal once per day oral dose for protective efficacy” value ([27]; po) of the same molecule?
Answer: 100 mg/kg

Question: And the clearance ([28]; both, iv, 1 mg/kg)?
Answer: ~18.3 mL/min/kg

Question: And the bioavailability ([28]; fasted)?
Answer: ~25%

Question: And the bioavailability ([28]; fed state)?
Answer: ~50%

Question: What about the bioavailability ([29]; female) of the same molecule?
Answer: 33%

Question: What about the bioavailability ([29]; male) of the same molecule?
Answer: 90%

Question: What about the “inhibition of clinical isolates in cell culture” value [30] of the same molecule?
Answer: inhibited

Question: What about the EC50 [31] of the same molecule?
Answer: 70 nM

Question: And the inhibition at 300 µM [32]?
Answer: < 50%

Question: What about the CYP induction [33] of the same molecule?
Answer: induction was observed

Question: What about the inhibition at 300 µM [34] of the same molecule?
Answer: < 50%

Question: What about the “solubility in organic solvents” value [35] of the same molecule?
Answer: very soluble

Question: What about the NOAEL [36] of the same molecule?
Answer: 2000 mg/kg

Question: What about the “lesion numbers compared to placebo-treated animals” value [37] of the same molecule?
Answer: reduced lesion numbers

Question: And the inhibition at 300 µM [38]?
Answer: < 50%

Question: What about the “Optimal oral dose mg/kg, s.i.d.” value ([39]; po) of the same molecule?
Answer: 10 mg/kg

Question: And the Time of treatment [39]?
Answer: 24 h.p.i. (100%)

Question: What about the “Time of treatment (% efficacy)” value [39] of the same molecule?
Answer: 24 h.p.i. (100%)

Question: What about the “time to nearly complete elimination of radioactivity” value ([40]; after oral administration) of the same molecule?
Answer: ≤ 96 h

Question: What about the “radioactivity eliminated in the urine” value [40, 58] of the same molecule?
Answer: 24%

Question: And the “radioactivity eliminated through the feces” value [40, 58]?
Answer: approximately 72%

Question: And the “cytochrome P450 (CYP) induction” value [41]?
Answer: no significant

Question: What about the “protection from lethal infection” value [42] of the same molecule?
Answer: protected animals from lethal infection

Question: What about the “protection from lethal infection, latest administration” value [42] of the same molecule?
Answer: as late as five days post-inoculation

Question: What about the “increase in AUC values (accumulation)” value ([43]; 1000 mg/kg) of the same molecule?
Answer: approximately 25%

Question: And the “increase in AUC values (accumulation)” value ([43]; 2000 mg/kg)?
Answer: approximately 50%

Question: And the terminal elimination half-life ([43]; once a day dosing)?
Answer: approximately four

Question: And the “protection from lethal infection” value [44]?
Answer: protect

Question: And the “Optimal oral dose mg/kg, s.i.d.” value ([45]; po)?
Answer: 100 mg/kg

Question: What about the Optimal dose duration [45] of the same molecule?
Answer: >5 days (100%)

Question: What about the “Optimal dose duration (% efficacy)” value [45] of the same molecule?
Answer: >5 days (100%)

Question: And the Time of treatment [45]?
Answer: 72 h.p.i. (100%)

Question: What about the “Time of treatment (% efficacy)” value [45] of the same molecule?
Answer: 72 h.p.i. (100%)

Question: What about the cleavage metabolites [46] of the same molecule?
Answer: not seen

Question: What about the “cleavage liberating 4-trifluoromethylbenzoic acid” value [47] of the same molecule?
Answer: small amounts of ST-246 were cleaved

Question: What about the “Optimal oral dose mg/kg, s.i.d.” value ([48]; po) of the same molecule?
Answer: 40 mg/kg

Question: What about the Time of treatment [48] of the same molecule?
Answer: 48 h.p.i. (100%)

Question: And the “Time of treatment (% efficacy)” value [48]?
Answer: 48 h.p.i. (100%)

Question: And the “chromosomal damage or bone marrow toxicity” value [49]?
Answer: did not cause

Question: What about the “metabolism by cytochrome P450 isozymes” value [50] of the same molecule?
Answer: not metabolized to any significant degree

Question: And the “interaction of p37 with Rab9 and TIP47” value [51]?
Answer: blocks

Question: What about the “radiolabel in the milk” value ([52]; nursing dams) of the same molecule?
Answer: < 1%

Question: What about the “radiolabel in the placenta” value ([52]; pregnant mice) of the same molecule?
Answer: only very low levels

Question: And the “protection from systemic disease” value [53]?
Answer: protects mice from systemic disease

Question: And the EC50 [54]?
Answer: 10 nM

Question: And the EC50 [55]?
Answer: > 40000 nM

Question: Which “fold more potent than the 4-dimethylaminophenyl analog” value [56] does the source give for O=C(NN1C(=O)C2C3C=CC(C4CC34)C2C1=O)c1ccc([N+](=O)[O-])cc1 (centres unmarked) [4-nitrophenyl] here?
Answer: 100 fold

Question: And the “fold more potent than the 4-dimethylaminophenyl analog” value [57]?
Answer: 100 fold
